Test results published in patent US11059853B2, “Crystalline or amorphous form of steroid derivative FXR agonist, preparation method therefor and use thereof” (Chia Tai Tianqing Pharmaceutical Group Co., Ltd., priority 2017, dated 2021).

Experiments:
[1] = Pharmacokinetics in mice administrated with single compound; type: in vivo, mice (C57BL/6J); conditions: mouse, plasma, male C57BL/6J mice; for bioavailability: oral 10 mg/kg vs intravenous 2 mg/kg; for AUC / Cmax / Tmax: oral (intragastrical) 10 mg/kg
Experimental: 12 male mice (C57BL/6J) were randomly divided into two groups, i.e., 6 mice per group. […] Plasma (using K2-EDTA as anticoagulant) samples were taken at 0.083, 0.25, 0.5, 1, 2, 4, 6, 8 and 24 hours in the intravenous administration group after administration; and plasma samples were taken at 0.25, 0.5, 1, 2, 4, 6, 8 and 24 hours in the oral administration group after administration. For 6 animals in each group, blood samples were collected for 3 animals at one time point. The first batch of 3 animals was alternately sampled with the second batch of 3 animals. Plasma sample analysis was performed by using LC-MS/MS. The resultant plasma concentrations were plotted with respect to time, and PK parameters were calculated by using Phoenix WinNonlin 6.3.

[2] = biological target: T1, Glutathione-S-transferase-labeled FXR human protein (Homo sapiens, UniProt Q96RI1); assay: FXR biochemical experiment (AlphaScreen, coactivator recruitment)
T1 sequence (Q96RI1 1-486): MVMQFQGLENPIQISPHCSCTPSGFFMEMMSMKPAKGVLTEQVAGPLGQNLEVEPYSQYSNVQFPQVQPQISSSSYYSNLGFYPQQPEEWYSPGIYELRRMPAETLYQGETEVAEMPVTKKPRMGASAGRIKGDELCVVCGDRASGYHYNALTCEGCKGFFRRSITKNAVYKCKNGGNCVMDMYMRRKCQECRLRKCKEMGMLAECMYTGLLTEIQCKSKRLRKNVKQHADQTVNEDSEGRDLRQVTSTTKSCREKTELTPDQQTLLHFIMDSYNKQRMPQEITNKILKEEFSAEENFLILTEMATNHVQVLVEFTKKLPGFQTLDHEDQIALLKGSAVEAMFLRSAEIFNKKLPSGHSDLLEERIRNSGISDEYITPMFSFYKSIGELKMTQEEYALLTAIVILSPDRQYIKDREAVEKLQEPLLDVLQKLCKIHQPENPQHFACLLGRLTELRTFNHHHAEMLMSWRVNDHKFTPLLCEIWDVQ
Experimental: The activation effect of the compound on FXR binding reaction was detected by AlphaScreen. […] Protein: Glutathione-S-transferase-labeled FXR human protein (Invitrogen) 2. Co-activator: Biotin-labeled steroid receptor coactivator (Anaspec) 3. […] Compound Dilution: The compound to be tested was prepared as a 40 μM DMSO solution, and then diluted 3-fold to 10 concentration points. The reference compound was prepared as a 400 μM DMSO solution, and then diluted 1.5-fold to 10 concentration points. The diluted DMSO solution was added to the wells of a 384-well plate in a volume of 150 nL per well. 2. […] 4. […] The operation during the experimental process was protected from light. The incubation was performed for 1 hour at room temperature. 5. […] The operation during the experimental process was protected from light. The incubation was performed for 1 hour at room temperature. 6. EC50 test: Envision was used with excitation at 680 nm to read the absorbance signals at 520-620 nm. 7. Analytical data: The data were analyzed via using Prism 5.0, and the EC50 values of the activation effects of the compound were calculated.

[3] = biological target: T2, FXR (FXR HEK 293T DA cells) (Homo sapiens, UniProt Q96RI1); assay: FXR cell experiment (β-lactamase reporter gene); type: cell-based
T2 sequence (Q96RI1 262-486 limits assumed): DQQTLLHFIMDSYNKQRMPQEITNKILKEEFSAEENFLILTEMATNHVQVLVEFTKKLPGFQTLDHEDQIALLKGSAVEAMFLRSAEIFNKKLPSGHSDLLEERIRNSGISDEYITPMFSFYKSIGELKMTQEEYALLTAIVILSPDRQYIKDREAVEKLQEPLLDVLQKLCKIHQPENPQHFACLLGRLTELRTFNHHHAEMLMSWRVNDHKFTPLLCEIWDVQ
Experimental: 2. Cell culture medium: DMEM medium supplemented with 10% serum and Penicillin/Streptomycin (1×)
3. Detection reagent: GeneBLAzer® Reporter Gene Detection Kit (Invitrogen)
1. Compound Dilution: The compound to be tested was prepared as a 100 μM DMSO solution, and then the compound was diluted 3-fold to 10 concentration points. The reference compound was prepared as a 100 μM DMSO solution, and then diluted 1.3-fold to 10 concentration points. The diluted DMSO solution was added to the wells of a 384-well plate in a volume of 200 nL per well.
3. The 384-well plate was incubated at 37° C., 5% CO2 for 16 hours.
4. 6 μL of 1 mM LiveBLAzer™-FRET 13/G (CCF4-AM) substrate was mixed with 60 μL of B solution and 934 μL of C solution, and added to the wells of the 384-well plate in a volume of 8 μL per well.
5. The 384-well plate was incubated in dark for 2 hours at room temperature.
7. Analytical data: The data was analyzed via using Prism 5.0, and the EC50 values of the activation effects of the compound were calculated.

[4] = Solid-state stability test (XRPD detection); type: physicochemical; conditions: room temperature/75% RH, 40° C./75% RH, 60° C./75% RH (all open); for Solid-state stability: crystalline form by XRPD compared with Day 0: room temperature/92.5% RH, Day 5 and Day 10
Experimental: In the present application, the X-ray powder diffraction patterns are measured by the following method: instrument: Bruker D8 ADVANCE X-ray diffractometer; method: target: Cu: K-Alpha; wavelength: λ=1.54179 Å; tube voltage: 40 kV; divergence slit: 0.60 mm; detector slit: 10.50 mm; antiscattering slit: 7.10 mm; tube current: 40 mA; scan range: 4° to 40°; scanning speed: 0.12 sec/step, 0.02°/step; sample tray rotation speed: 15 rpm.
The solid-state stability of crystalline Form A was examined under the following conditions: 1) 40° C. (open), 2) 60° C. (open), 3) room temperature/92.5% RH (open), 4) room temperature/75% RH (open), 5) 40° C./75% RH (open), and 6) 60° C./75% RH (open), wherein the room temperature was selected from 20° C. to 30° C.
(§1) Several samples of crystalline Form A in a suitable amount were taken, and placed on the bottom of the glass specimen bottles and spread into a thin layer. The bottles with the samples to be placed under the abovementioned conditions were capped with aluminum-foil paper which has been punched with several small holes, which ensures that the samples could be in full contact with the ambient air.
The solid-state stability of crystalline Form B was examined under the following conditions: 1) room temperature/92.5% RH (open), 2) room temperature/75% RH (open), 3) 40° C./75% RH (open), and 4) 60° C./75% RH (open), which the room temperature was selected from 20° C. to 30° C.
as §1, with “B” for “A”
The solid-state stability for the solid amorphous form of the compound of formula I was examined under the following conditions: 1) room temperature/75% RH (open), 2) 40° C./75% RH (open), 3) 60° C./75% RH (open), wherein the room temperature was selected from 20° C. to 30° C. […]

[5] = Test for hygroscopicity, Dynamic Vapor Sorption (DVS); type: physicochemical; conditions: 25±1° C., 80±2% RH
Experimental: Dynamic Vapor Sorption (DVS) analysis was performed on crystalline Form A and the solid amorphous form of the compound of formula I by the following process and conditions: the samples (10 to 15 mg) were placed in the sample pan; instrument model: SMS DVS Advantage Dynamic Vapor Sorption; temperature: 25° C.; balance: dm/dt=0.01%/min (Min: 10 min, Max: 180 min); drying: for 120 min at 0% RH; RH (%) gradient for testing: 10%; the RH (%) range for gradient testing: 0%-90%-0%. The hygroscopicity was evaluated using the following scale: […]

Compound | bioavailability [1] [%] | AUC [1] [µM·h] | Cmax [1] [nM] | Tmax [1] [min] | hygroscopic weight gain [5] [%] | also measured
CC[C@H]1[C@@H](O)[C@@H]2[C@H](CC[C@]3(C)[C@@H]([C@H](C)CCC(=O)O)CC[C@@H]23)[C@@]2(C)CC[C@@H](O)C[C@@H]12 [Obeticholic acid, reference compound] | 13 | 0.993 | 1010 | 18 |  | 
CC[C@H]1[C@@H](O)[C@@H]2[C@H](CC[C@]3(C)[C@@H]([C@H](C)CCOc4ncc(C(=O)O)cc4Cl)CC[C@@H]23)[C@@]2(C)CC[C@@H](O)C[C@@H]12 [The compound of formula I] | 20 | 1.11 | 1780 | 30 |  | EC50 ([2]; AlphaScreen, GST-FXR human protein with biotin-labeled steroid receptor coactivator, read-out: FXR enzyme activity EC50): 2.5 nM; FXR enzyme activity Efficacy ([2]; highest signal relative to the reference compound): 248%; EC50 ([3]; FXR HEK 293T DA cells, β-lactamase reporter gene, 16 hours, read-out: FXR cell viability EC50): 3 nM; FXR cell viability Efficacy ([3]; highest signal relative to reference compound CDCA): 150%
CC[C@H]1[C@@H](O)[C@@H]2[C@H](CC[C@]3(C)[C@@H]([C@H](C)CCOc4ncc(C(=O)O)cc4Cl)CC[C@@H]23)[C@@]2(C)CC[C@@H](O)C[C@@H]12 [crystalline Form A] |  |  |  |  | 0.835 | Solid-state stability: crystalline form by XRPD compared with Day 0 ([4]; 40° C., 60° C.): remained unchanged
CC[C@H]1[C@@H](O)[C@@H]2[C@H](CC[C@]3(C)[C@@H]([C@H](C)CCOc4ncc(C(=O)O)cc4Cl)CC[C@@H]23)[C@@]2(C)CC[C@@H](O)C[C@@H]12 [crystalline Form B] |  |  |  |  |  | Solid-state stability: crystalline form by XRPD compared with Day 0 [4]: remained unchanged
CC[C@H]1[C@@H](O)[C@@H]2[C@H](CC[C@]3(C)[C@@H]([C@H](C)CCOc4ncc(C(=O)O)cc4Cl)CC[C@@H]23)[C@@]2(C)CC[C@@H](O)C[C@@H]12 [solid amorphous form of the compound of formula I] |  |  |  |  | 1.775 | Solid-state stability: XRPD compared with Day 0 ([4]; Day 10 and one month): remained unchanged
